Holding throughout (assay): Glasshouse herbicidal test, pre- and post-emergence, percentage damage to the plant
What all share (assay type): in vivo

Test [1] has as its system Alopecurus myosuroides (ALOMY). Particulars: 250 g/h, evaluated after 13 days; for ALOMY POST percentage damage caused to the plant (five-point scale): post-emergence; for ALOMY PRE percentage damage caused to the plant (five-point scale): pre-emergence. On the procedure:
(§1) Seeds of a variety of test species are sown in standard soil in pots (Lolium perenne (LOLPE), Setaria faberi (SETFA), Alopecurus myosuroides (ALOMY), Echinochloa crus-galli (ECHCG), Avena fatua (AVEFA)). After cultivation for one day (pre-emergence) or after 8 days cultivation (post-emergence) under controlled conditions in a glasshouse (at 24/16° C., day/night; 14 hours light; 65% humidity), the plants are sprayed with an aqueous spray solution derived from the formulation of the technical active ingredient in acetone/water (50:50) solution containing 0.5% Tween 20 (polyoxyethelyene sorbitan monolaurate, CAS RN 9005-64-5). Compounds are applied at 250 g/h. The test plants are then grown in a glasshouse under controlled conditions in a glasshouse (at 24/16° C., day/night; 14 hours light; 65% humidity) and watered twice daily. After 13 days for pre and post-emergence, the test is evaluated for the percentage damage caused to the plant. The biological activities are shown in the following table on a five-point scale (5=80-100%; 4=60-79%; 3=40-59%; 2=20-39%; 1=0-19%).

Another test concerns Setaria faberi (SETFA). The conditions noted are these: 250 g/h, evaluated after 13 days; for SETFA POST percentage damage caused to the plant (five-point scale): post-emergence; for SETFA PRE percentage damage caused to the plant (five-point scale): pre-emergence. On the procedure:
as §1

Test [2] has as its system Echinochloa crus-galli (ECHCG). Particulars: 250 g/h, evaluated after 13 days; for ECHCG POST percentage damage caused to the plant (five-point scale): post-emergence; for ECHCG PRE percentage damage caused to the plant (five-point scale): pre-emergence. On the procedure: as §1
The next test deals with Avena fatua (AVEFA). The conditions noted are these: 250 g/h, evaluated after 13 days; for AVEFA POST percentage damage caused to the plant (five-point scale): post-emergence; for AVEFA PRE percentage damage caused to the plant (five-point scale): pre-emergence. The procedure:
as §1

Another test deals with Lolium perenne (LOLPE). Particulars: 250 g/h, evaluated after 13 days; for LOLPE POST percentage damage caused to the plant (five-point scale): post-emergence; for LOLPE PRE percentage damage caused to the plant (five-point scale): pre-emergence. The procedure: as §1

Consider `CC#Cc1cc(Cl)c(C2C(=O)CC3(CCN(C(=O)CC#N)CC3)CC2=O)c(Cl)c1` [Compound A15], for which, in test [1], the “ALOMY POST percentage damage caused to the plant (five-point scale)” value (“ALOMY POST percentage damage caused” below) was 5 (5=80-100%) and the “ALOMY PRE percentage damage caused to the plant (five-point scale)” value (shortened to “ALOMY PRE percentage damage caused”) was 5 (5=80-100%). Also, in the test on Setaria faberi (SETFA), the “SETFA POST percentage damage caused to the plant (five-point scale)” value (“SETFA POST percentage damage caused” below) is 5 (5=80-100%) and the “SETFA PRE percentage damage caused to the plant (five-point scale)” value (from here on “SETFA PRE percentage damage caused”) is 5 (5=80-100%). Also, in test [2], the “ECHCG POST percentage damage caused to the plant (five-point scale)” value (from here on “ECHCG POST percentage damage caused”) is 5 (5=80-100%) and the “ECHCG PRE percentage damage caused to the plant (five-point scale)” value (shortened to “ECHCG PRE percentage damage caused”) is recorded as 5 (5=80-100%). In the test on Avena fatua (AVEFA), the “AVEFA POST percentage damage caused to the plant (five-point scale)” value (shortened to “AVEFA POST percentage damage caused”) was 5 (5=80-100%) and the “AVEFA PRE percentage damage caused to the plant (five-point scale)” value (“AVEFA PRE percentage damage caused” below) is reported as 5 (5=80-100%). In addition, in the test on Lolium perenne (LOLPE), the “LOLPE POST percentage damage caused to the plant (five-point scale)” value (“LOLPE POST percentage damage caused” for short) was 5 (5=80-100%) and the “LOLPE PRE percentage damage caused to the plant (five-point scale)” value (shortened to “LOLPE PRE percentage damage caused”) is reported as 5 (5=80-100%).
Consider `CC#Cc1cc(Cl)c(C2C(=O)CC3(CCN(C(=O)c4ccccn4)CC3)CC2=O)c(OC)c1` [Compound A4], for which, in test [1], the “ALOMY POST percentage damage caused” value was 5 (5=80-100%) and the “ALOMY PRE percentage damage caused” value is reported as 5 (5=80-100%). In the test on Setaria faberi (SETFA), the “SETFA POST percentage damage caused” value is 5 (5=80-100%) and the “SETFA PRE percentage damage caused” value is listed as 5 (5=80-100%). In test [2], the “ECHCG POST percentage damage caused” value is reported as 5 (5=80-100%) and the “ECHCG PRE percentage damage caused” value is given as 5 (5=80-100%). Moreover, in the test with Avena fatua (AVEFA), the “AVEFA POST percentage damage caused” value is 5 (5=80-100%) and the “AVEFA PRE percentage damage caused” value is reported as 5 (5=80-100%). In the test with Lolium perenne (LOLPE), the “LOLPE POST percentage damage caused” value is 5 (5=80-100%) and the “LOLPE PRE percentage damage caused” value is on record as 5 (5=80-100%).
Turning to `CCc1cc(-c2ccc(C#N)cn2)cc(Cl)c1C1C(=O)CC2(CCN(C(=O)C3CC3)CC2)CC1=O` [Compound A53], in test [1], the “ALOMY POST percentage damage caused” value was 5 (5=80-100%) and the “ALOMY PRE percentage damage caused” value is reported as 5 (5=80-100%). In the test on Setaria faberi (SETFA), the “SETFA POST percentage damage caused” value is recorded as 5 (5=80-100%) and the “SETFA PRE percentage damage caused” value is recorded as 5 (5=80-100%). Moreover, in test [2], the “ECHCG POST percentage damage caused” value is listed as 5 (5=80-100%) and the “ECHCG PRE percentage damage caused” value is 5 (5=80-100%). In addition, in the test on Avena fatua (AVEFA), the “AVEFA POST percentage damage caused” value was 5 (5=80-100%) and the “AVEFA PRE percentage damage caused” value is 5 (5=80-100%). In the test on Lolium perenne (LOLPE), the “LOLPE POST percentage damage caused” value is 5 (5=80-100%) and the “LOLPE PRE percentage damage caused” value is on record as 5 (5=80-100%).
Consider `CC#Cc1cc(C)c(C2C(=O)CC3(CCN(C(C)=O)CC3)CC2=O)c(CC)c1` [Compound A47], for which, in test [1], the “ALOMY POST percentage damage caused” value is 5 (5=80-100%) and the “ALOMY PRE percentage damage caused” value is listed as 5 (5=80-100%). For the same compound, in the test with Setaria faberi (SETFA), the “SETFA POST percentage damage caused” value is listed as 5 (5=80-100%) and the “SETFA PRE percentage damage caused” value was 5 (5=80-100%). In test [2], the “ECHCG POST percentage damage caused” value was 5 (5=80-100%) and the “ECHCG PRE percentage damage caused” value is on record as 5 (5=80-100%). Besides, in the test with Avena fatua (AVEFA), the “AVEFA POST percentage damage caused” value is 5 (5=80-100%) and the “AVEFA PRE percentage damage caused” value was 5 (5=80-100%). For the same compound, in the test with Lolium perenne (LOLPE), the “LOLPE POST percentage damage caused” value is 5 (5=80-100%) and the “LOLPE PRE percentage damage caused” value is 5 (5=80-100%).
On to `CC#Cc1cc(Cl)c(C2C(=O)CC3(CCN(C(C)=O)CC3)CC2=O)c(CC)c1` [Compound A49], for which, in test [1], the “ALOMY POST percentage damage caused” value is on record as 5 (5=80-100%) and the “ALOMY PRE percentage damage caused” value is recorded as 5 (5=80-100%). Also, in the test with Setaria faberi (SETFA), the “SETFA POST percentage damage caused” value is 5 (5=80-100%) and the “SETFA PRE percentage damage caused” value was 5 (5=80-100%). Also, in test [2], the “ECHCG POST percentage damage caused” value was 5 (5=80-100%) and the “ECHCG PRE percentage damage caused” value is 5 (5=80-100%). Further, in the test on Avena fatua (AVEFA), the “AVEFA POST percentage damage caused” value is on record as 5 (5=80-100%) and the “AVEFA PRE percentage damage caused” value is listed as 5 (5=80-100%). Also, in the test on Lolium perenne (LOLPE), the “LOLPE POST percentage damage caused” value is 5 (5=80-100%) and the “LOLPE PRE percentage damage caused” value is 5 (5=80-100%).
On to `CC#Cc1cc(Cl)c(C2C(=O)CC3(CCN(C(=O)NC(=O)c4ccccn4)CC3)CC2=O)c(Cl)c1` [Compound A17], for which, in test [1], the “ALOMY POST percentage damage caused” value was 2 (2=20-39%) and the “ALOMY PRE percentage damage caused” value is 2 (2=20-39%). Moreover, in the test on Setaria faberi (SETFA), the “SETFA POST percentage damage caused” value is recorded as 5 (5=80-100%) and the “SETFA PRE percentage damage caused” value is recorded as 4 (4=60-79%). Moreover, in test [2], the “ECHCG POST percentage damage caused” value was 5 (5=80-100%) and the “ECHCG PRE percentage damage caused” value is 3 (3=40-59%). Also, in the test with Avena fatua (AVEFA), the “AVEFA POST percentage damage caused” value is listed as 5 (5=80-100%) and the “AVEFA PRE percentage damage caused” value is reported as 2 (2=20-39%). Also, in the test with Lolium perenne (LOLPE), the “LOLPE POST percentage damage caused” value is given as 5 (5=80-100%) and the “LOLPE PRE percentage damage caused” value is reported as 2 (2=20-39%).
`CC#Cc1cc(Cl)c(C2C(=O)CC3(CCN(C(=O)C(F)F)CC3)CC2=O)c(OC)c1` [Compound A9]: in test [1], the “ALOMY POST percentage damage caused” value is recorded as 5 (5=80-100%) and the “ALOMY PRE percentage damage caused” value was 5 (5=80-100%). Also, in the test with Setaria faberi (SETFA), the “SETFA POST percentage damage caused” value is 5 (5=80-100%) and the “SETFA PRE percentage damage caused” value is on record as 5 (5=80-100%). For the same compound, in test [2], the “ECHCG POST percentage damage caused” value is 5 (5=80-100%) and the “ECHCG PRE percentage damage caused” value is given as 5 (5=80-100%). In the test with Avena fatua (AVEFA), the “AVEFA POST percentage damage caused” value is on record as 5 (5=80-100%) and the “AVEFA PRE percentage damage caused” value is recorded as 5 (5=80-100%). Further, in the test on Lolium perenne (LOLPE), the “LOLPE POST percentage damage caused” value is recorded as 5 (5=80-100%) and the “LOLPE PRE percentage damage caused” value is on record as 5 (5=80-100%).
As to `CC#Cc1cc(Cl)c(C2C(=O)CC3(CCN(C(C)=O)CC3)CC2=O)c(OC)c1` [Compound A1], in the test on Setaria faberi (SETFA), the “SETFA POST percentage damage caused” value is listed as 5 (5=80-100%) and the “SETFA PRE percentage damage caused” value was 5 (5=80-100%). Also, in test [2], the “ECHCG POST percentage damage caused” value is 5 (5=80-100%) and the “ECHCG PRE percentage damage caused” value was 5 (5=80-100%). In addition, in the test on Avena fatua (AVEFA), the “AVEFA POST percentage damage caused” value was 5 (5=80-100%) and the “AVEFA PRE percentage damage caused” value is reported as 5 (5=80-100%). Moreover, in the test with Lolium perenne (LOLPE), the “LOLPE POST percentage damage caused” value is on record as 5 (5=80-100%) and the “LOLPE PRE percentage damage caused” value is 5 (5=80-100%).
